The record followed here is patent US20250051344A1, “BIFUNCTIONAL SELECTIVE DEGRADERS OF SMARCA2 AND THERAPEUTIC USES THEREOF” (Nurix Therapeutics, Inc., priority 2023, published 2025).

Experiment [1] deals with T1, SMARCA4 (Homo sapiens, UniProt P51532).
T1 construct: endogenous in cells
Briefly: Cellular degradation assay, SMARCA4 (Table 1). Type of experiment: cell-based.

Experiment [2] has as its target T2, SMARCA2 (Homo sapiens, UniProt P51531).
T2 construct: endogenous in cells
As to the kind of experiment: SMARCA2 Cellular Degradation Assay (Western blot analysis on Jess platform). Type of experiment: cell-based. The following applies: for DC50 / Dmax: cellular degradation; for Fold Selectivity SMARCA4/2: ratio DC50 SMARCA4 / DC50 SMARCA2. In short, it runs like this:
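Cells recovered from tumors are lysed, cleared at 20,817×g, and protein is quantified by BCA. Equal protein (5 μg) is then probed on Jess for SMARCA2 and actin, and normalized SMARCA2 signal is reported against vehicle.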
(In general: In western blotting, separated proteins are transferred to a membrane and probed.)

T2 sequence (P51531 whole entry, species assumed): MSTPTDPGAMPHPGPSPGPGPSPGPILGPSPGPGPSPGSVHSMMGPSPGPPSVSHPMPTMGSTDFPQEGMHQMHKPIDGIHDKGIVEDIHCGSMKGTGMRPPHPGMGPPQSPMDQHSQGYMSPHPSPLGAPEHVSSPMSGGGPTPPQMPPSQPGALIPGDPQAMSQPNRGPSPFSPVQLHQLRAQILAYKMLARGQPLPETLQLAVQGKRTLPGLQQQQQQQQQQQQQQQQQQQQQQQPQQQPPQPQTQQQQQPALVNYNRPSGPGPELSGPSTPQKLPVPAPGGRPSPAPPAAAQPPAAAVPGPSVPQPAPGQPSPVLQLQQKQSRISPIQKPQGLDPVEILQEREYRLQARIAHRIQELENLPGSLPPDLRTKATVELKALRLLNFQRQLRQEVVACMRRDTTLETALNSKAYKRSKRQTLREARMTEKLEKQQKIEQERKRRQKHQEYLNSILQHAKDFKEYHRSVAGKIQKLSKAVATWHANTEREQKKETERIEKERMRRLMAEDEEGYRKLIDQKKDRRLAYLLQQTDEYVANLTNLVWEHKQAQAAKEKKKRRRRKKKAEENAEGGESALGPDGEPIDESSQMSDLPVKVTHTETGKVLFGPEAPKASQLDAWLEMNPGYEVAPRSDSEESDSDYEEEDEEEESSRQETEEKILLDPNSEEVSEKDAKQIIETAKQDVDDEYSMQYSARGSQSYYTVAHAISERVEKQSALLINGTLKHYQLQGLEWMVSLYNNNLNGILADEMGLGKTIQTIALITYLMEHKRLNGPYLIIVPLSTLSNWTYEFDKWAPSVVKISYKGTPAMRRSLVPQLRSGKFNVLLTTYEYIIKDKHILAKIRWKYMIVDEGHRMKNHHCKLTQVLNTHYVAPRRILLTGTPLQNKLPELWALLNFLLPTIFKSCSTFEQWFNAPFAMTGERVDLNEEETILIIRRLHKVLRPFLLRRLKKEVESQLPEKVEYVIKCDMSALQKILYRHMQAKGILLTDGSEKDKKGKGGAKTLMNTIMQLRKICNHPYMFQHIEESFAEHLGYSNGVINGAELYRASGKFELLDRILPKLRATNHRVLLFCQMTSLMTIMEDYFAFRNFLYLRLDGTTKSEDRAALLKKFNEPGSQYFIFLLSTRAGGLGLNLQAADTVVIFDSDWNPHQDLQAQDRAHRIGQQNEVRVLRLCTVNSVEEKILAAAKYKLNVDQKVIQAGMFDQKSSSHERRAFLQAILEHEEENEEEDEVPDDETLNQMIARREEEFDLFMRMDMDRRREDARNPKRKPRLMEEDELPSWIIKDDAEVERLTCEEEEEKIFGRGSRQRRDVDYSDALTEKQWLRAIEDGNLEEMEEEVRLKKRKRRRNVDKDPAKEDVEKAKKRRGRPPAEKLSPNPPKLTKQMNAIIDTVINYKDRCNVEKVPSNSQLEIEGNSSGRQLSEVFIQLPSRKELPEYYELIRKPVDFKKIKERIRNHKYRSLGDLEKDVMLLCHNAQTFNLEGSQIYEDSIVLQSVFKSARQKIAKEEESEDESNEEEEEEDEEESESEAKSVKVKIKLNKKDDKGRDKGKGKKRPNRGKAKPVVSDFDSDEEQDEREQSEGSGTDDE
T1 sequence (P51532 whole entry, species assumed): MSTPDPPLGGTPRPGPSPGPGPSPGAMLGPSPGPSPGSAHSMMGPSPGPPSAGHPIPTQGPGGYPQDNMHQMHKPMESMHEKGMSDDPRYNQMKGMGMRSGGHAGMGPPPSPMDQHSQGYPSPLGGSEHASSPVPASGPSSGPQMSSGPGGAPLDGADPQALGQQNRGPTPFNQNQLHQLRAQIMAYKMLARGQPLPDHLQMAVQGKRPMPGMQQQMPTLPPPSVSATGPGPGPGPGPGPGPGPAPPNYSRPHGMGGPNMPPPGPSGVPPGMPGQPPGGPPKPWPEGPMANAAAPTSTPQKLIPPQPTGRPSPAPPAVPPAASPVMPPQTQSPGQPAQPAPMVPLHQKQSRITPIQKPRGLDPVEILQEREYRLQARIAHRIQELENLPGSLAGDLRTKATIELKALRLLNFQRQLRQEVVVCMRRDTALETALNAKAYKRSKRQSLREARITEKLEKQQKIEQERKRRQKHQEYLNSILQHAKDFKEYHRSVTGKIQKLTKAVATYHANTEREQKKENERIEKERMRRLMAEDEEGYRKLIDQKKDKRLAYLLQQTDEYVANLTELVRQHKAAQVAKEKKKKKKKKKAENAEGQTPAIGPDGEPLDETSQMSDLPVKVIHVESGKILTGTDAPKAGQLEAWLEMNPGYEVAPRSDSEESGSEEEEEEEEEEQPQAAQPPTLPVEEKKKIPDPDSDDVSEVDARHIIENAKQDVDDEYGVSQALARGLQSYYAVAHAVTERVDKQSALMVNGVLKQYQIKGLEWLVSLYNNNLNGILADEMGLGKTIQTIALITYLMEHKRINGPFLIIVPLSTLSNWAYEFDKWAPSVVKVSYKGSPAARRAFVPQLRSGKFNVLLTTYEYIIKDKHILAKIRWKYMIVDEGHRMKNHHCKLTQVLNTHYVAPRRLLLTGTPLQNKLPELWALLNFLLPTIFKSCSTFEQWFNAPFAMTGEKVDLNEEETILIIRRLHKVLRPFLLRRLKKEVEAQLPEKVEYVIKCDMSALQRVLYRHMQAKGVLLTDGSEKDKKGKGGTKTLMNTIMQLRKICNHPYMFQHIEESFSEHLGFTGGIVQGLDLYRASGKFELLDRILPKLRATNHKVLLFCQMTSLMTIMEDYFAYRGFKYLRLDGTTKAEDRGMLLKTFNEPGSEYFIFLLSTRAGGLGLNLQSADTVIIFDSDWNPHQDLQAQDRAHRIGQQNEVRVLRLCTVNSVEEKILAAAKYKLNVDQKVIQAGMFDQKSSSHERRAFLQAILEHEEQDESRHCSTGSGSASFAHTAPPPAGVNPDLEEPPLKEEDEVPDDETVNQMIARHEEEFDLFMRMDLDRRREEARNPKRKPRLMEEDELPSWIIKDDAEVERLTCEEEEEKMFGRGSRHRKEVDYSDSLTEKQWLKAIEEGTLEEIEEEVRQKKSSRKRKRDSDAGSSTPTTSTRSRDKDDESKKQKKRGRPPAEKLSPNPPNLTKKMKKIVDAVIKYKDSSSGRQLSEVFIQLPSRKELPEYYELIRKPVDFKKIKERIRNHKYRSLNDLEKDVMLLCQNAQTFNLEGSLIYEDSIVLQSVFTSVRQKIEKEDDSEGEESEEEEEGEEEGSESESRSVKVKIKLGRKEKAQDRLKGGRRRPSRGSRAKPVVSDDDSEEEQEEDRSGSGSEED

In the case of `CN(C(=O)C1(c2ccccc2)CCN(c2cnnc(-c3ccccc3O)c2)CC1)C1CCN(CCC2CCN(c3ccc(C4CCC(=O)NC4=O)c(F)c3)CC2)CC1` (racemic) [Example 151, rac-N-{1-[2-(1-{4-[(3R)-2,6-dioxopiperidin-3-yl]-3-fluorophenyl}piperidin-4-yl)ethyl]piperidin-4-yl}-1-[6-(2-hydroxyphenyl)pyridazin-4-yl]-N-methyl-4-phenylpiperidine-4-carboxamide], in experiment [1], the DC50 (usually the concentration at which degradation of the target reaches its halfway point) stood at 157 nM and the Dmax (usually the largest share of the target that was removed) was 59.6%. Also, in experiment [2], half-maximal degradation (DC50) was put at 3.57 nM, the Dmax came out at 92.3% and the “Fold Selectivity SMARCA4/2” value amounted to 44.
For the molecule `CN(C(=O)C1(c2cnn(C)c2)CCN(c2cnnc(-c3ccccc3O)c2)CC1)C1CCN(C2COC3(CCN(c4ccc([C@H]5CCC(=O)NC5=O)cc4)CC3)C2)CC1` (mixture of isomers) [Example 64, N-{1-[(3RS)-8-{4-[(3R)-2,6-dioxopiperidin-3-yl]phenyl}-1-oxa-8-azaspiro[4.5]decan-3-yl]piperidin-4-yl}-1-[6-(2-hydroxyphenyl)pyridazin-4-yl]-n-methyl-4-(1-methyl-1H-pyrazol-4-yl)piperidine-4-carboxamide], the Dmax in experiment [1] stood at 30.4%. Besides, in experiment [2], the DC50 amounted to 5.51 nM, the maximal degradation (Dmax) was 81.3% and the “Fold Selectivity SMARCA4/2” value was determined as 1815.
Turning to `O=C1CC[C@H](c2ccc(N3CCC(CNC4CC5CCCC(C4)C5NC(=O)C4(c5ccccc5)CCN(c5cnnc(-c6ccccc6O)c5)CC4)CC3)cc2)C(=O)N1` (stereo partly drawn) [Example 49, N-(3-{[(1-{4-[(3R)-2,6-dioxopiperidin-3-yl]phenyl}piperidin-4-yl)methyl]amino}bicyclo[3.3.1]nonan-9-yl)-1-[6-(2-hydroxyphenyl)pyridazin-4-yl]-4-phenylpiperidine-4-carboxamide], in experiment [1], half-maximal degradation (DC50) was put at 172 nM and the Dmax is 59.8%. Moreover, in experiment [2], it took 26.4 nM to reach half-maximal degradation (DC50), the Dmax worked out at 76.9% and the “Fold Selectivity SMARCA4/2” value was found to be 6.52.
Consider `O=C1CC[C@@H](c2ccc(C3CCN(CC(=O)N4C[C@@H]5[C@H](C4)[C@H]5C(=O)NCC4(c5ccccc5)CCN(c5cnnc(-c6ccccc6O)c5)CC4)CC3)cc2)C(=O)N1` (racemic) [Example 73, (1R,5S,6S)-3-[2-(4-{4-[(3RS)-2,6-dioxopiperidin-3-yl]phenyl}piperidin-1-yl)acetyl]-N-({1-[6-(2-hydroxyphenyl)pyridazin-4-yl]-4-phenylpiperidin-4-yl}methyl)-3-azabicyclo[3.1.0]hexane-6-carboxamide], for which, in experiment [1], the Dmax worked out at 21%. In addition, in experiment [2], it took 11 nM to reach half-maximal degradation (DC50), the Dmax came out at 79.8% and the “Fold Selectivity SMARCA4/2” value turned out to be 910.
As for `CN(C(=O)C1(Oc2ccn(C)n2)CCN(c2cnnc(-c3ccccc3O)c2)CC1)C1CCN(C(=O)CN2CCC(c3ccc([C@@H]4CCC(=O)NC4=O)cc3)CC2)CC1` (racemic) [Example 110, rac-n-(1-(2-(4-(4-(2,6-dioxopiperidin-3-yl)phenyl)piperidin-1-yl)acetyl)piperidin-4-yl)-1-(6-(2-hydroxyphenyl)pyridazin-4-yl)-n-methyl-4-((1-methyl-1h-pyrazol-3-yl)oxy)piperidine-4-carboxamide], in experiment [1], the DC50 worked out at 273 nM and the Dmax was 56.9%. In experiment [2], the DC50 is 16.7 nM, the Dmax worked out at 80.8% and the “Fold Selectivity SMARCA4/2” value was 16.
For `O=C1CC[C@H](c2ccc(N3CCC4(CC3)CC(N[C@H]3CC[C@H](NC(=O)C5(c6ccccc6)CCN(c6cnnc(-c7ccccc7O)c6)CC5)CC3)CO4)cc2)C(=O)N1` (mixture of isomers) [Example 178, 1-[6-(2-hydroxyphenyl)pyridazin-4-yl]-4-phenyl-N-[(1r,4r)-4-[(8-{4-[(3RS)-2,6-dioxopiperidin-3-yl]phenyl}-1-oxa-8-azaspiro[4.5]decan-3-yl)amino]cyclohexyl]piperidine-4-carboxamide], in that order: 70.3 nM, 62.2%, 10.1 nM, 76.2% and 7.
For `O=C1CCC(c2ccc(N3CCC(F)(CN4CC5(C4)CN(C(=O)C4(c6ccccc6)CCN(c6cnnc(-c7ccccc7O)c6)CC4)C5)CC3)nc2)C(=O)N1` (racemic) [Example 19, rac-(3R)-3-(6-{4-fluoro-4-[(6-{1-[6-(2-hydroxyphenyl)pyridazin-4-yl]-4-phenylpiperidine-4-carbonyl}-2,6-diazaspiro[3.3]heptan-2-yl)methyl]piperidin-1-yl}pyridin-3-yl)piperidine-2,6-dione] the same measures were 156 nM, 57%, 24.4 nM, 77.9% and 6.42.
As to `CN(C(=O)C1(c2ccnn2C)CCN(c2cnnc(-c3ccccc3O)c2)CC1)C1CCN(CC2CCN(c3ccc(C4CCC(=O)NC4=O)cc3)CC2)CC1` (racemic) [Example 91, rac-N-{1-[(1-{4-[(3R)-2,6-dioxopiperidin-3-yl]phenyl}piperidin-4-yl)methyl]piperidin-4-yl}-1-[6-(2-hydroxyphenyl)pyridazin-4-yl]-N-methyl-4-(1-methyl-1H-pyrazol-5-yl)piperidine-4-carboxamide], the Dmax in experiment [1] came out at 41.8%. Besides, in experiment [2], the DC50 was determined as 4.52 nM, the Dmax was 79.8% and the “Fold Selectivity SMARCA4/2” value is 2212.
For `Cn1nccc1C1(C(=O)N2CC3(CN(CC4CCN(c5ccc(C6CCC(=O)NC6=O)cc5)CC4)C3)C2)CCN(c2cnnc(-c3ccccc3O)c2)CC1` (racemic) [Example 93, rac-(3R)-3-(4-{4-[(6-{1-[6-(2-hydroxyphenyl)pyridazin-4-yl]-4-(1-methyl-1H-pyrazol-5-yl)piperidine-4-carbonyl}-2,6-diazaspiro[3.3]heptan-2-yl)methyl]piperidin-1-yl}phenyl)piperidine-2,6-dione], in that order: 33.8%, 21.1 nM, 69.8% and 474.
For `Cn1nc(N2CCC(=O)NC2=O)c2cccc(N3CCC(CN4CC5(C4)CN(C(=O)C4(c6ccccc6)CCN(c6cnnc(-c7ccccc7O)c6)CC4)C5)CC3)c21` [Example 123, 1-(7-{4-[(6-{1-[6-(2-hydroxyphenyl)pyridazin-4-yl]-4-phenylpiperidine-4-carbonyl}-2,6-diazaspiro[3.3]heptan-2-yl)methyl]piperidin-1-yl}-1-methyl-1H-indazol-3-yl)-1,3-diazinane-2,4-dione], in that order: 35%, 68.1 nM, 66.8% and 147.
As to `COC1(C(=O)N(C)C2CCN(C(=O)CN3CCC(c4ccc([C@@H]5CCC(=O)NC5=O)cc4)CC3)CC2)CCN(c2cnnc(-c3ccccc3O)c2)CC1` (racemic) [Example 111, rac-n-(1-(2-(4-(4-(2,6-dioxopiperidin-3-yl)phenyl)piperidin-1-yl)acetyl)piperidin-4-yl)-1-(6-(2-hydroxyphenyl)pyridazin-4-yl)-4-methoxy-n-methylpiperidine-4-carboxamide], in experiment [1], it took 210 nM to reach half-maximal degradation (DC50) and the Dmax is 57.5%. Also, in experiment [2], the DC50 is 11.1 nM, the Dmax came out at 81.4% and the “Fold Selectivity SMARCA4/2” value came to 19.
In experiment [1], `O=C1CC[C@H](c2ccc(N3CCC(CN4CCC(NC(=O)C5(c6ccccn6)CCN(c6cnnc(-c7ccccc7O)c6)CC5)CC45CCC5)CC3)cc2)C(=O)N1` (stereo partly drawn) [Example 182, N-{5-[(1-{4-[(3R)-2,6-dioxopiperidin-3-yl]phenyl}piperidin-4-yl)methyl]-5-azaspiro[3.5]nonan-8-yl}-1-[6-(2-hydroxyphenyl)pyridazin-4-yl]-4-(pyridin-2-yl)piperidine-4-carboxamide] came in with a DC50 of 62.6 nM and a Dmax of 57.1%. In addition, in experiment [2], the DC50 came out at 2.76 nM, the Dmax amounted to 82.5% and the “Fold Selectivity SMARCA4/2” value was 23.
For `Cc1ccnn1C1(C(=O)N(C)C2CCN(CCC3CCN(c4ccc(C5CCC(=O)NC5=O)c(F)c4)CC3)CC2)CCN(c2cnnc(-c3ccccc3O)c2)CC1` (racemic) [Example 65, rac-N-{1-[2-(1-{4-[(3R)-2,6-dioxopiperidin-3-yl]-3-fluorophenyl}piperidin-4-yl)ethyl]piperidin-4-yl}-1-[6-(2-hydroxyphenyl)pyridazin-4-yl]-n-methyl-4-(5-methyl-1H-pyrazol-1-yl)piperidine-4-carboxamide] the same measures were 88.6 nM, 55.4%, 3.33 nM, 89.2% and 27.
For `O=C1CC[C@H](c2ccc(N3CCC(CCN4CCC(C(=O)NCC5(c6ccccc6)CCN(c6cnnc(-c7ccccc7O)c6)CC5)CC45CCOCC5)CC3)cc2)C(=O)N1` (mixture of isomers) [Example 104, rac-1-(2-(1-(4-((r)-2,6-dioxopiperidin-3-yl)phenyl)piperidin-4-yl)ethyl)-n-((1-(6-(2-hydroxyphenyl)pyridazin-4-yl)-4-phenylpiperidin-4-yl)methyl)-9-oxa-1-azaspiro[5.5]undecane-4-carboxamide], the Dmax in experiment [1] worked out at 50%. In experiment [2], the DC50 was determined as 7.3 nM, the Dmax stood at 81.8% and the “Fold Selectivity SMARCA4/2” value is 1370.
For `Cn1c(=O)n(C2CCC(=O)NC2=O)c2cccc(N3CCN(CC(=O)N4CC5(C4)CN(C(=O)C4(c6ccccc6)CCN(c6cnnc(-c7ccccc7O)c6)CC4)C5)CC3)c21` (racemic) [Example 126, rac-(3R)-3-(4-{4-[2-(6-{1-[6-(2-hydroxyphenyl)pyridazin-4-yl]-4-phenylpiperidine-4-carbonyl}-2,6-diazaspiro[3.3]heptan-2-yl)-2-oxoethyl]piperazin-1-yl}-3-methyl-2-oxo-2,3-dihydro-1H-1,3-benzodiazol-1-yl)piperidine-2,6-dione] the same measures were 32.2%, 32.8 nM, 80.9% and 304.
